Results from ChEMBL document CHEMBL1145692, “New Type of Mono-tetrahydrofuran Ring Acetogenins from Goniothalamus donnaiensis” (J Nat Prod, 1997).

How the values were obtained:
KB [1] = assay: Cytotoxicity against human KB cells; assay type: functional, cell-based
HCT-8 = assay: Cytotoxicity against human HCT8 cells; assay type: functional, cell-based
KB [2] = assay: Cytotoxicity against human KB cells at 10 ug/ml; assay type: functional

Structure (SMILES): CCCCCCCCCCCC[C@@H](O)[C@H]1CC[C@H]([C@H](O)CCCCCCCCCC[C@@H](O)CC2=CC(C)(O)OC2=O)O1 (mixture of isomers)
- IC50 (KB [1]): < 1 µg/mL
- IC50 (HCT-8): < 10 µg/mL

Structure (SMILES): CCCCCCCCCCCCCC[C@H](O)[C@@H](O)CC[C@H](O)[C@@H]1CC[C@@H](CCCCC[C@@H](O)CC2=CC(C)(O)OC2=O)O1 (mixture of isomers) [DONNAIENIN B/34-EPI-DONNAIENIN B]
- inhibition at 10 µg/mL (KB [2]): 53.8%
